According to patent publication US5321039A, “Method of inducing a histamine agonist action on H2 receptors” (Societe Civile Bioprojet, priority 1990, dated 1994):

Legend:
[1] = tested on: secretion of gastric acid which is stimulated by histamine; details: opposes action of histamine; Ganellin; cited from earlier work
[2] = tested on: histamine synthesis in the brain of rats; test: inhibition of histamine synthesis in vivo (brain, peripheral organs)
H3 receptor = molecular target: T1, H3 receptor (Rattus norvegicus, UniProt Q9QYN8); test: inhibition of liberation and synthesis of endogenous histamine from depolarized brain sections (H3 agonism); format: cell-based; details: for potency relative to histamine (times more powerful): H3 agonist
T1 construct: liberation and synthesis of endogenous histamine from depolarized brain sections; from tissue; host or cells: brain sections (slices)

histamine H2 receptor = details: Sterk et al.; cited from earlier work
histamine H3 receptor = details: EP-A-0 420 396; cited from earlier work

T1 sequence (Q9QYN8 whole entry): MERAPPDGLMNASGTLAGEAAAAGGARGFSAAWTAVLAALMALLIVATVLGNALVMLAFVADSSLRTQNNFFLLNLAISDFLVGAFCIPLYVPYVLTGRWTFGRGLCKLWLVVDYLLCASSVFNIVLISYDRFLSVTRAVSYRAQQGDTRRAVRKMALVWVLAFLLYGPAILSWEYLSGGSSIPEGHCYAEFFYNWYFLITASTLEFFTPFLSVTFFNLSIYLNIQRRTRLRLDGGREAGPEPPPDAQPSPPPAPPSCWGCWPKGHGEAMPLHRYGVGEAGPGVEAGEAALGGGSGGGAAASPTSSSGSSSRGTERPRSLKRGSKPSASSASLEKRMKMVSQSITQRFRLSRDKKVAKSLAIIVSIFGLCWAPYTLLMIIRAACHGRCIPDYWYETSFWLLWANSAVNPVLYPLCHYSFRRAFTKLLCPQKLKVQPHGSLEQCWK

Row | Compound | 50% inhibiting dose on rat gastric secretion [1] | crossing of the blood-brain barrier ([2]; inferred from brain effect at oral 3 mg/kg in rats) | inhibition of histamine synthesis in peripheral organs such as the lungs ([2]; peripheral organs, lungs) | inhibition of histamine synthesis in the brain ([2]; rats, oral dose of 3 mg/kg) | type of agonism on the H3 receptor (H3 receptor) | potency relative to histamine (times more powerful) (H3 receptor) | concentration for H3 relative to that necessary for engagement of the H2 receptor (times lower) (H3 receptor; H3 versus H2) | concentration stimulating the H3 receptor (H3 receptor; depolarized brain sections) | concentration stimulating the H2 receptor (histamine H2 receptor) | partial agonist efficacy at histamine H2 receptor (histamine H2 receptor) | H3 agonist potency and selectivity in words (histamine H3 receptor) | H3 agonist activity in vivo ([2]; in vivo test not specified) | EC50 (H3 receptor; read-out: EC50 as H3 agonist)
1 | N=C(N)SCCc1cnc[nH]1 [Compound I, S-[2-(4(5)-imidazolyl)-ethyl] isothiourea] | about 200 μmoles/kg | adequately crosses the blood-brain barrier | inhibits at a very low dose | maximum inhibition | full histamine agonist | 62 times | about 100,000 times | about 1 nanomolar | about 0.1 mM | 50% | highly potent selective histamine H3 -agonists | – | –
2 | N=C(N)CCCc1c[nH]cn1 [Compound III, 4-(4(5)-imidazolyl) butyramidine] | – | – | – | – | – | – | – | – | – | – | highly potent selective histamine H3 -agonists | – | –
3 | CN=C(N)SCCc1c[nH]cn1 [Compound II] | – | – | – | – | full and comparatively powerful | about 6 times | – | – | – | – | – | active in vivo | 10 nM
